From patent publication US7618956B2, “Reduction of hair growth” (The Gillette Company, priority 2005, dated 2009)

Assays:
[1] = test system: Human hair follicles in growth phase (anagen); experiment: Human hair follicle growth assay; format: cell-based; conditions: for Hair follicle length increase (mm) Treated: day 0 to day 7; for % Reduction of human hair follicle growth / Growth of follicle (mm) Treated: Table III
Method: Human Hair Follicle Growth Assay:
Human hair follicles in growth phase (anagen) were isolated from face-lift tissue (obtained from plastic surgeons) under dissecting scope using a scalpel and watchmakers forceps. The skin was sliced into thin strips exposing 2-3 rows of follicles that could readily be dissected. Follicles were placed into 0.5 ml William's E medium (Life Technologies, Gaithersburg, Md.) supplemented with 2 mM L-glutamine, 10 μg/ml insulin, 10 ng/ml hydrocortisone, 100 units of penicillin, 0.1 mg/ml streptomycin and 0.25 μg/ml amphotericin B. The follicles were incubated in 24-well plates (1 follicle/well) at 37° C. in an atmosphere of 5% CO2 and 95% air. Compounds are dissolved into dimethyl sulfoxide as 100-fold stock solution. The control hair follicles were treated with dimethyl sulfoxide without prostaglandin. The follicles were photographed in the 24-well plates under the dissecting scope at a power of 10×. Typically, image recordings were made on day 0 (day follicles were placed in culture), and again on day 7. The length of hair follicle was assessed using an image analysis software system. The growth of hair fiber was calculated by the subtracting the follicle length on day 0 from that determined on day 7.

hamster hair mass = experiment: Hamster hair mass assay; format: in vivo; conditions: vehicle 90% ethanol and 10% propylene glycol
Method: Hamster Hair Mass Assay: Hamster hair mass was determined using a method similar to that described in previous patent (US2004/0198821).

[2] = Homo sapiens, Table II, dose 100 μM, vs control

| Structure (SMILES) | inhibition at 100 µM [1, 2] [%] | Hair follicle length increase (mm) Treated ([1]; Table II, dose 100 μM) [mm] | % Reduction of human hair follicle growth ([1]; dose 50 μM) [%] | Growth of follicle (mm) Treated ([1]; dose 50 μM) [mm] | % Inhibition of hamster hair mass (hamster hair mass; dose 5% (w/v)) [%] | Hair mass (mg) Treated (hamster hair mass; dose 5% (w/v)) [mg] | % Reduction of human hair follicle growth ([1]; dose 10 μM) [%] | Growth of follicle (mm) Treated ([1]; dose 10 μM) [mm] | % Reduction of human hair follicle growth ([1]; dose 100 μM) [%] | Growth of follicle (mm) Treated ([1]; dose 100 μM) [mm] | further results |
| --- | --- | --- | --- | --- | --- | --- | --- | --- | --- | --- | --- |
| C[C@H](CCC(=O)O)[C@H]1CC[C@H]2[C@@H]3[C@H](O)C[C@@H]4C[C@H](O)CC[C@]4(C)[C@H]3CC[C@]12C [Chenodeoxycholic acid] | 95.3 ± 5.6 | 0.05 ± 0.06 | 91.6 ± 6.5 | 0.13 ± 0.10 | 76.4 ± 2.6 | 0.54 ± 0.08 |  |  |  |  | % Reduction of human hair follicle growth ([1]; dose 5 μM): 1.3 ± 18.7%; Growth of follicle (mm) Treated ([1]; dose 5 μM): 1.53 ± 0.29 mm; % Reduction of human hair follicle growth ([1]; dose 25 μM): 49.0 ± 17.4%; Growth of follicle (mm) Treated ([1]; dose 25 μM): 0.79 ± 0.27 mm |
| C[C@H](CCC(=O)O)[C@H]1CC[C@H]2[C@@H]3CC[C@@H]4C[C@H](O)CC[C@]4(C)[C@H]3C[C@H](O)[C@]12C [Deoxycholic acid] | 94.3 ± 4.7 | 0.06 ± 0.05 | 69.3 ± 13.6 | 0.54 ± 0.34 | 63.6 ± 6.0 | 0.92 ± 0.14 | 31.8 ± 18.1 | 1.20 ± 0.49 | 69.3 ± 13.6 | 0.54 ± 0.34 |  |
| CC(C)=CCCC(C)=CCCC(C)=CCO [Farnesol] | 95.4 ± 8 | 0.04 ± 0.07 |  |  |  |  |  |  |  |  |  |
| COC(=O)C=C(C)CCC=C(C)CCC1OC1(C)C (centres unmarked) [Juvenile hormone III, 7-Methyl-9-(3,3-dimethyloxivanyl)-3-methyl-2,6-nonadienoic acid methyl ester] |  | 0.21 ± 0.15 |  |  |  |  |  |  |  |  | % Inhibition of human hair follicle growth ([1]; Table II, dose 100 μM, vs control): 75.9 ± 17.2% |
| C[C@H](CCC(=O)O)[C@H]1CC[C@H]2[C@@H]3CC[C@@H]4C[C@H](O)CC[C@]4(C)[C@H]3CC[C@]12C [Lithocholic acid] |  |  |  |  |  |  | 64.5 ± 12.9 | 0.44 ± 0.16 |  |  | inhibition at 50 µM ([1]; Homo sapiens, Table II, dose 50 μM, vs control): 98.1 ± 1.9%; Hair follicle length increase (mm) Treated ([1]; Table II, dose 50 μM): 0.02 ± 0.02 mm; % Reduction of human hair follicle growth ([1]; dose 2 μM): 33.9 ± 11.3%; Growth of follicle (mm) Treated ([1]; dose 2 μM): 0.82 ± 0.14 mm; % Reduction of human hair follicle growth ([1]; dose 20 μM): 97.6 ± 4.8%; Growth of follicle (mm) Treated ([1]; dose 20 μM): 0.03 ± 0.06 mm; % Inhibition of hamster hair mass (hamster hair mass; dose 4% (w/v)): 46.4 ± 6.0%; Hair mass (mg) Treated (hamster hair mass; dose 4% (w/v)): 1.01 ± 0.12 mg |
| C[C@H](CCC(=O)O)[C@H]1CC[C@H]2[C@@H]3[C@@H](O)C[C@@H]4C[C@H](O)CC[C@]4(C)[C@H]3CC[C@]12C [Ursodeoxycholic acid] |  |  | 36.3 ± 13.6 | 1.12 ± 0.24 | 56.8 ± 3.8 | 1.02 ± 0.16 |  |  | 51.1 ± 11.4 | 0.86 ± 0.20 | inhibition at 200 µM ([1]; Homo sapiens, Table II, dose 200 μM, vs control): 81.3 ± 10.3%; Hair follicle length increase (mm) Treated ([1]; Table II, dose 200 μM): 0.20 ± 0.11 mm; % Reduction of human hair follicle growth ([1]; dose 150 μM): 65.3 ± 11.4%; Growth of follicle (mm) Treated ([1]; dose 150 μM): 0.61 ± 0.20 mm |
